Results on six compounds are retold here after patent publication US9512121B2, “[1,2,4] triazol [4,3-A] pyridine derivative, preparation method therefor or medical application thereof” (Jiangsu Hansoh Pharmaceutical Co., Ltd., priority 2013, dated 2016).

A short description of series [1]: Pharmacokinetic test in rats after intragastric administration (LC/MS/MS of plasma). It is filed as in vivo, Sprague-Dawley (SD) rats. To be noted: SD rats, protocol 10.0 mg/kg; for Vd/F / AUC / CL/F / half-life / MRT / Cmax: both sexes, Sprague-Dawley, rat, plasma, po; for Vd/F: read-out: Apparent Distribution Volume Vz/F; for AUC: read-out: Area Under Curve AUC; for CL/F: read-out: Clearance CL/F; for half-life: read-out: Half life t1/2 (converted); for MRT: read-out: Mean Residence Time MRT; for Cmax: read-out: Plasma Conc. Cmax. Here is the method:
Rats were used as test animals. A LC/MS/MS method was used to determine drug concentration in plasma at different time points after the rats were administered the compounds of Examples 3, 22 and 28 intragastrically. The pharmacokinetic behavior of the compounds of the present invention was studied and evaluated in rats.
Eight healthy adult Sprague-Dawley (SD) rats, half male and half female, were divided into 2 groups with 4 rats in each group. The animals were purchased from SINO-BRITISH SIPPR/BK LAB. ANIMAL LTD., CO, Certificate No.: SCXK (Shanghai) 2008-0016.
A certain amount of test compounds was weighed. 1.0 mL of dimethyl sulfoxide was added to dissolve the compounds. Normal saline was added to prepare a 1.0 mg/mL solution. The concentration of DMSO was kept at 5%. […]
Compounds of Example 3, 22 and 28 were administered intragastrically to rats. Blood samples (0.1 mL) were taken from the orbital sinus before the administration, and at 0.5, 1.0, 2.0, 3.0, 4.0, 6.0, 8.0, 12.0, 24.0, and 36.0 hours after administration. The blood sample was placed in a heparinized tube, and then centrifuged for 10 minutes at 4° C., at 10000 rpm to separate blood plasma. The plasma samples were stored at −20° C. The rats were fed 2 hours after compound administration.
Content determination of the test compounds in rat plasma after intragastrically administering at different concentrations: 50 μL of rat plasma taken at various time points after administration were mixed with 50 μL of internal standard solution and 100 μL of methanol, and mixed for 3 minutes by a vortexer. The mixture was centrifuged for 10 minutes at 13,500 rpm. 10 μL of the supernatant were taken from the plasma sample and analyzed by LC-MS/MS.

For series [2], the system named is hepatocellular carcinoma cell lines HCCLM3, MHCC97-H, MHCC97-L, and stomach cancer cell lines SNU5, MKN-45. As to the kind of experiment: Growth inhibition of cancer cell lines (CellTiter-Glo, 72 hours). To be noted: read-out: Half inhibitory concentration (IC50), cell activity.
Description: The purpose is to measure the growth inhibition effect of the compound on hepatocellular carcinoma cell lines HCCLM3, MHCC97-H, MHCC97-L, and stomach cancer cell lines SNU5, MKN-45.
The positive control and the test compounds were firstly dissolved in 100% dimethyl sulfoxide to prepare a 20 mM stock solution, which was stored at −20° C. in a refrigerator. Before the experiment, the above stock solution was diluted with culture medium containing 0.6% dimethyl sulfoxide to prepare a 20× fold solution for each test concentration.
(1) To each well of 96-well plate was added 100 μl culture medium containing 2000 cells (HCCLM3/MHCC97-H/MHCC97-L was cultured in DMEM plus 10% FBS; SNU5 was cultured in IMDM plus 10% FBS; and MKN45 was cultured in RPMI1640 plus 10% GFBS). The plate was incubated in a 5% CO2 incubator overnight.
(2) 20 μl diluted positive control or test compounds were added to each well, with two duplicate wells for each dilution. To the blank well and the control well were each added 20 μl culture medium containing 0.6% dimethyl sulfoxide. […]
(5) BioTek microplate reader was used to measure the luminescence signal of each well.
(6) Using GraphPad software, a non-linear regression curve was generated based on the inhibition ratio as a function of the concentration of the compounds. The IC50 was calculated using a S-shaped dose-effect curve fitting.
Another series concerns the target c-MET tyrosine kinase (Homo sapiens (Human), UniProt P08581). As to the kind of experiment: c-MET tyrosine kinase enzyme activity (inhibition of phosphorylation, fluorescence). The conditions noted are these: read-out: Half inhibitory concentration (IC50) on the receptor tyrosine kinase c-MET, enzyme activity.
The conditions of series [3]: cited from earlier work.

The structures appear in SMILES notation.

c-MET tyrosine kinase, sequence (P08581 25-1390): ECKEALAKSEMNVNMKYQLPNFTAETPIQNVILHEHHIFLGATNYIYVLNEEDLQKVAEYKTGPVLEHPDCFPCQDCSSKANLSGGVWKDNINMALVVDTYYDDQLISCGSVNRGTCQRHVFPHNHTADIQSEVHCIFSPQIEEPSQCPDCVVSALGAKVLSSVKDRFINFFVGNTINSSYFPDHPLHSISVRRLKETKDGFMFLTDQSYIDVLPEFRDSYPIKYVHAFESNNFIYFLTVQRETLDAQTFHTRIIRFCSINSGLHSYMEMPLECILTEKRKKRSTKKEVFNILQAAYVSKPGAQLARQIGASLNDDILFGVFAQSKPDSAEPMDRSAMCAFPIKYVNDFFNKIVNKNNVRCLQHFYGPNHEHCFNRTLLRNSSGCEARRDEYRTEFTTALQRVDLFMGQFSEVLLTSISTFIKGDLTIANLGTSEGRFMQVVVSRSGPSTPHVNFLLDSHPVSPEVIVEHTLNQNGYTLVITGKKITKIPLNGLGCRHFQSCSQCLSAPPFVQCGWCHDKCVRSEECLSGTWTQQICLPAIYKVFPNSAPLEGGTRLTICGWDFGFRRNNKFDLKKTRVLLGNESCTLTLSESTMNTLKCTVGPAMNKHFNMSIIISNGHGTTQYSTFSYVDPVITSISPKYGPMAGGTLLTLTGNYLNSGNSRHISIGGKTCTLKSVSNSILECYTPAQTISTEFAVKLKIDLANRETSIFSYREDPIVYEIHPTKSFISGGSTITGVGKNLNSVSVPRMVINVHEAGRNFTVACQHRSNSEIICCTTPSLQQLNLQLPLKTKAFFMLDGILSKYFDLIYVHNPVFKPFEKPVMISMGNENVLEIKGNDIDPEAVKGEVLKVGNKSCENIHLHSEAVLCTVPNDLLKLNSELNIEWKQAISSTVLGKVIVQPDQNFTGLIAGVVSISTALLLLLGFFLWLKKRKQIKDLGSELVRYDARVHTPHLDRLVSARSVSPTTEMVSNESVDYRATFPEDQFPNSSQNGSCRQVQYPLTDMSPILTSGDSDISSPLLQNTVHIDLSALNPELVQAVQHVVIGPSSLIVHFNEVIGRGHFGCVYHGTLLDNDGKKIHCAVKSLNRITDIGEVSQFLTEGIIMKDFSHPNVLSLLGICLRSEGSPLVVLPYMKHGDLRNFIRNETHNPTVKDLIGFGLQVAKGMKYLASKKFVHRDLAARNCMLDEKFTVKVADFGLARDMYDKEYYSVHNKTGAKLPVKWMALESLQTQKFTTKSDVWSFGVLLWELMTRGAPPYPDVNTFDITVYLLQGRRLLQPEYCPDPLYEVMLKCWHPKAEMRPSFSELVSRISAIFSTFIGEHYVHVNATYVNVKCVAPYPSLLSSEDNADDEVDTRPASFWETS
Description for c-MET tyrosine kinase: The average inhibition rate of kinase and IC50 values were determined by a NovoStar microplate reader (BMG Co., Germany).
The purpose is to study the effect of the compounds on c-MET tyrosine kinase activity at the molecular level. IC50 values were calculated from the data of the inhibition rates of the compounds on c-MET tyrosine kinase phosphorylation at various concentrations, thereby evaluating the compounds.
The positive control and the test compounds were first dissolved in 100% dimethyl sulfoxide to prepare a 20 mM stock solution, which was stored at −20° C. in a freezer.
Just before the experiment, the above stock solution was diluted to a final concentration of 4% in dimethyl sulfoxide.
According to the need of dilution ratio, endonuclease was diluted in display buffer B.
All of the compounds were diluted within a 96-well plate.
The plate was incubated at room temperature for 1 hour.
5 μL display buffer were added, and the plate was incubated at room temperature for another 1 hour.
Using GraphPad software, a non-linear regression curve was generated based on the inhibition ratio as a function of the concentration of the compounds. The IC50 was calculated using a S-shaped dose-effect curve fitting.

Broadly, the AUC is concentration integrated over time. What is called MRT is a mean duration of stay, worked out from the concentration-time curve. One may read the Cmax as the peak of the concentration-time curve. Regarding `Cn1cc(-c2cc(F)c3nnc(Sc4ccc5ncc6c(c5c4)OCCO6)n3c2)cn1` [Example 3, 9-((8-fluoro-6-(1-methyl-1H-pyrazol-4-yl)-[1,2,4]triazolo[4,3-a]pyridin-3-yl)thio)-2,3-dihydro-[1,4]dioxino[2,3-c]quinoline], in series [1], the Vd/F was determined as 0.667 ± 0.087 L/kg, the exposure (AUC) came to 79300 ± 40700 ng·h/mL, the CL/F came out at 1.33 ± 0.76 mL/min/kg and the half-life is 7.54 ± 4.56 h. Further, in series [1], the MRT is 11.6 ± 5.8 h and the Cmax was determined as 5000 ± 957 ng/mL.
Consider `CN1C(=O)COc2c1cnc1ccc(Sc3nnc4c(OC(F)F)cc(-c5cnn(C)c5)cn34)cc21` [Example 13, 9-((8-(difluoromethoxy)-6-(1-methyl-1H-pyrazol-4-yl)-[1,2,4]triazolo[4,3-a]pyridin-3-yl)thio)-4-methyl-2H-[1,4]oxazino[3,2-c]quinolin-3(4H)-one], for which the IC50 (in series [2]; on c-MET tyrosine kinase) was more than 1000 nM in each case.
Take `CN1C(=O)COc2c1cnc1ccc(Sc3nnc4c(F)cc(-c5cnn(C)c5)cn34)cc21` [Example 22, 9-((8-fluoro-6-(1-methyl-1H-pyrazol-4-yl)-[1,2,4]triazolo[4,3-a]pyridin-3-yl)thio)-4-methyl-2H-[1,4]oxazino[3,2-c]quinolin-3(4H)-one]: the IC50 in series [2] worked out at 2 nM. In addition, in series [1], the Vd/F amounted to 0.327 ± 0.037 L/kg, the AUC was found to be 122000 ± 13900 ng·h/mL, the CL/F was found to be 0.686 ± 0.071 mL/min/kg and the half-life was 5.55 ± 0.78 h. In series [1], the MRT came to 9.1 ± 0.85 h and the peak concentration (Cmax) was 8630 ± 592 ng/mL. Further, on c-MET tyrosine kinase, the IC50 came to 2.9 nM.
For `Cn1cc(-c2ccc3nnc(Sc4ccc5ncc(N6CCOCC6)c(F)c5c4)n3c2)cn1` [Example 28, 4-(4-fluoro-6-((6-(1-methyl-1H-pyrazol-4-yl)-[1,2,4]triazolo[4,3-a]pyridin-3-yl)thio)quinolin-3-yl)morpholine], in series [1], the Vd/F worked out at 1.13 ± 0.79 L/kg, the AUC turned out to be 30900 ± 25500 ng·h/mL, the CL/F worked out at 4.06 ± 2.4 mL/min/kg and the half-life was 3.13 ± 0.54 h. Moreover, in series [1], the MRT turned out to be 5.17 ± 0.95 h and the Cmax came to 3600 ± 1820 ng/mL.
For the compound `Cn1cc(-c2ccc3nnc(C(F)(F)c4ccc5ncccc5c4)n3n2)cn1` [JNJ-38877605, reference compound], in series [1], the “Apparent Distribution Volume Vz/F” value was determined as 1.48 ± 0.613 L/kg, the “Area Under Curve AUC” value came out at 17325 ± 9505 ng·h/mL, the “Clearance CL/F” value was determined as 5.81 ± 2.54 mL/min/kg and the “Half life t1/2” value is 2.97 ± 0.25 h. In addition, in series [1], the “Mean Residence Time MRT” value is on record as 4.90 ± 0.62 h and the “Plasma Conc. Cmax” value was 2373 ± 1444 ng/mL. Moreover, the “outcome of clinical trials (toxicity)” value in series [3] is listed as “discontinued in clinical trials due to renal toxicity”.
Consider `Cn1cc(-c2ccc3nnc(Sc4ccc5ncccc5c4)n3n2)cn1` [SNG-523], for which the “outcome of clinical trials (toxicity)” value in series [3] is on record as “discontinued in clinical trials due to renal toxicity”.
